We go through seven cell lines from the supplement of paper PMC10307832.

Common to all, as to test: relative viability (nuclei count vs DMSO), 5 days (fraction); higher = more cells survive
Compound in the experiment “Tosedostat + AZD7762”: CC(C)C[C@@H](C(=O)N[C@H](C(=O)OC1CCCC1)c1ccccc1)[C@H](O)C(=O)NO [Tosedostat] + NC(=O)Nc1cc(-c2cccc(F)c2)sc1C(=O)N[C@H]1CCCNC1 [AZD7762] (partner 0.2 µM)
In outline:
(§1)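 Nuclei were stained with Hoechst during a one-step fixation (final 0.05% Triton X-100, 1% formaldehyde, 1 ug/ml Hoechst) carried out 5 days after dosing, then counted on 4× images. The cells, lung cancer lines in 1536-well plates, had been dosed by pin tool the day after seeding with one drug alone or a fixed anchor-drug dose plus five library-drug doses (not always all listed) in √10 steps. Relative viability is the nuclei count in treated wells divided by that in vehicle wells, and each value is the median of duplicate plates.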

Compound in experiment [1]: CC1=NN=C(O1)C2=NN=C(C=C2)N3CCC(CC3)OC4=C(C=CC(=C4)F)Cl + Cc1nc(NC(=O)N2CCC[C@H]2C(N)=O)sc1-c1ccnc(C(C)(C)C(F)(F)F)c1 [Alpelisib] (partner 2 µM)
The essentials:
as §1

Compound in the experiment “Tosedostat + Tozasertib”: CC(C)C[C@@H](C(=O)N[C@H](C(=O)OC1CCCC1)c1ccccc1)[C@H](O)C(=O)NO [Tosedostat] + Cc1cc(Nc2cc(N3CCN(C)CC3)nc(Sc3ccc(NC(=O)C4CC4)cc3)n2)n[nH]1 [Tozasertib] (partner 0.1 µM)
In outline: as §1

Compound in the experiment “Tosedostat + OSI-027”: CC(C)C[C@@H](C(=O)N[C@H](C(=O)OC1CCCC1)c1ccccc1)[C@H](O)C(=O)NO [Tosedostat] + COc1cccc2cc(-c3nc([C@H]4CC[C@H](C(=O)O)CC4)n4ncnc(N)c34)[nH]c12 [OSI-027] (partner 0.5 µM)
The essentials:
as §1

On to H3255, for which the relative viability was determined as 1.04 with Tosedostat + AZD7762 (first compound 0.02 µM); 0.919 with Tosedostat + AZD7762 (first compound 0.06325 µM); 0.953 with Tosedostat + AZD7762 (first compound 0.2 µM); 0.81 in the experiment with Tosedostat + AZD7762 (first compound 0.6325 µM); 0.746 with Tosedostat + AZD7762 (first compound 2 µM); 0.562 in experiment [1] (first compound 0.253 µM). The relative viability in experiment [1] (first compound 0.8 µM) came to 0.614; in experiment [1] (first compound 2.53 µM), 0.633; in experiment [1] (first compound 8 µM), 0.571; in the experiment with Tosedostat + Tozasertib (first compound 0.02 µM) it was 0.575; with Tosedostat + Tozasertib (first compound 0.06325 µM), 0.717; with Tosedostat + Tozasertib (first compound 0.2 µM), 0.643. Besides, the relative viability in the experiment with Tosedostat + Tozasertib (first compound 0.6325 µM) worked out at 0.534; in the experiment with Tosedostat + Tozasertib (first compound 2 µM), 0.656; with Tosedostat + OSI-027 (first compound 0.02 µM) it was 0.67; in the experiment with Tosedostat + OSI-027 (first compound 0.06325 µM), 0.522; in the experiment with Tosedostat + OSI-027 (first compound 0.2 µM), 0.603; in the experiment with Tosedostat + OSI-027 (first compound 0.6325 µM) it was 0.513. Moreover, the relative viability in the experiment with Tosedostat + OSI-027 (first compound 2 µM) came out at 0.509.
On to NCI-H2087, for which the relative viability with Tosedostat + AZD7762 (first compound 0.02 µM) was 1.52; with Tosedostat + AZD7762 (first compound 0.06325 µM), 1.31; with Tosedostat + AZD7762 (first compound 0.2 µM), 1.22; with Tosedostat + AZD7762 (first compound 0.6325 µM) it was 1.2; with Tosedostat + AZD7762 (first compound 2 µM), 1.24; in experiment [1] (first compound 0.253 µM) it was 0.762. Besides, the relative viability in experiment [1] (first compound 0.8 µM) turned out to be 0.674; in experiment [1] (first compound 2.53 µM) it was 0.615; in experiment [1] (first compound 8 µM) it was 0.615; with Tosedostat + Tozasertib (first compound 0.02 µM), 0.301; with Tosedostat + Tozasertib (first compound 0.06325 µM), 0.284; with Tosedostat + Tozasertib (first compound 0.2 µM) it was 0.277. In addition, the relative viability in the experiment with Tosedostat + Tozasertib (first compound 0.6325 µM) stood at 0.108; with Tosedostat + Tozasertib (first compound 2 µM), 0.081; in the experiment with Tosedostat + OSI-027 (first compound 0.02 µM), 0.664; with Tosedostat + OSI-027 (first compound 0.06325 µM), 0.497; with Tosedostat + OSI-027 (first compound 0.2 µM) it was 0.487; with Tosedostat + OSI-027 (first compound 0.6325 µM), 0.543. Further, the relative viability with Tosedostat + OSI-027 (first compound 2 µM) amounted to 0.559.
On to NCI-H1915, for which the relative viability was 0.685 with Tosedostat + AZD7762 (first compound 0.02 µM); 0.681 in the experiment with Tosedostat + AZD7762 (first compound 0.06325 µM); 0.785 with Tosedostat + AZD7762 (first compound 0.2 µM); 0.612 in the experiment with Tosedostat + AZD7762 (first compound 0.6325 µM); 0.54 with Tosedostat + AZD7762 (first compound 2 µM); 0.506 in experiment [1] (first compound 0.253 µM). Further, the relative viability in experiment [1] (first compound 0.8 µM) is 0.391; in experiment [1] (first compound 2.53 µM), 0.437; in experiment [1] (first compound 8 µM), 0.31; in the experiment with Tosedostat + Tozasertib (first compound 0.02 µM) it was 0.473; with Tosedostat + Tozasertib (first compound 0.06325 µM), 0.432; with Tosedostat + Tozasertib (first compound 0.2 µM), 0.492. Also, the relative viability in the experiment with Tosedostat + Tozasertib (first compound 0.6325 µM) turned out to be 0.352; with Tosedostat + Tozasertib (first compound 2 µM) it was 0.289; with Tosedostat + OSI-027 (first compound 0.02 µM) it was 0.659; with Tosedostat + OSI-027 (first compound 0.06325 µM), 0.614; with Tosedostat + OSI-027 (first compound 0.2 µM), 0.643; in the experiment with Tosedostat + OSI-027 (first compound 0.6325 µM), 0.585. The relative viability with Tosedostat + OSI-027 (first compound 2 µM) was found to be 0.532.
On to HOP-62, for which the relative viability with Tosedostat + AZD7762 (first compound 0.02 µM) is 0.56; with Tosedostat + AZD7762 (first compound 0.06325 µM), 0.556; with Tosedostat + AZD7762 (first compound 0.2 µM), 0.753; with Tosedostat + AZD7762 (first compound 0.6325 µM), 0.345; in the experiment with Tosedostat + AZD7762 (first compound 2 µM), 0.379; in experiment [1] (first compound 0.253 µM), 0.791. Besides, the relative viability in experiment [1] (first compound 2.53 µM) came to 0.609; in experiment [1] (first compound 8 µM), 0.505; with Tosedostat + Tozasertib (first compound 0.02 µM) it was 0.393; in the experiment with Tosedostat + Tozasertib (first compound 0.06325 µM), 0.31; in the experiment with Tosedostat + Tozasertib (first compound 0.2 µM) it was 0.329; with Tosedostat + Tozasertib (first compound 0.6325 µM), 0.323. Besides, the relative viability with Tosedostat + Tozasertib (first compound 2 µM) amounted to 0.152; with Tosedostat + OSI-027 (first compound 0.02 µM) it was 0.836; with Tosedostat + OSI-027 (first compound 0.06325 µM), 0.813; in the experiment with Tosedostat + OSI-027 (first compound 0.2 µM), 0.885; with Tosedostat + OSI-027 (first compound 0.6325 µM), 0.671; in the experiment with Tosedostat + OSI-027 (first compound 2 µM), 0.664.
LU99A: the relative viability in the experiment with Tosedostat + AZD7762 (first compound 0.02 µM) is 0.369; in the experiment with Tosedostat + AZD7762 (first compound 0.06325 µM), 0.333; with Tosedostat + AZD7762 (first compound 0.2 µM) it was 0.374; with Tosedostat + AZD7762 (first compound 0.6325 µM), 0.293; with Tosedostat + AZD7762 (first compound 2 µM), 0.297; in experiment [1] (first compound 0.253 µM), 0.547. Further, the relative viability in experiment [1] (first compound 0.8 µM) was 0.526; in experiment [1] (first compound 2.53 µM), 0.559; in experiment [1] (first compound 8 µM), 0.495; with Tosedostat + Tozasertib (first compound 0.02 µM) it was 0.253; in the experiment with Tosedostat + Tozasertib (first compound 0.06325 µM), 0.284; with Tosedostat + Tozasertib (first compound 0.2 µM) it was 0.277. In addition, the relative viability was 0.242 in the experiment with Tosedostat + Tozasertib (first compound 0.6325 µM); 0.225 in the experiment with Tosedostat + Tozasertib (first compound 2 µM); 0.324 with Tosedostat + OSI-027 (first compound 0.02 µM); 0.286 with Tosedostat + OSI-027 (first compound 0.06325 µM); 0.292 in the experiment with Tosedostat + OSI-027 (first compound 0.2 µM); 0.312 with Tosedostat + OSI-027 (first compound 0.6325 µM). Also, the relative viability with Tosedostat + OSI-027 (first compound 2 µM) worked out at 0.249.
In the case of NCI-H3122, the relative viability was 1.1 with Tosedostat + AZD7762 (first compound 0.02 µM); 0.919 in the experiment with Tosedostat + AZD7762 (first compound 0.06325 µM); 0.894 in the experiment with Tosedostat + AZD7762 (first compound 0.2 µM); 0.875 with Tosedostat + AZD7762 (first compound 0.6325 µM); 1.14 with Tosedostat + AZD7762 (first compound 2 µM); 0.632 in experiment [1] (first compound 0.253 µM). In addition, the relative viability was 0.642 in experiment [1] (first compound 0.8 µM); 0.702 in experiment [1] (first compound 2.53 µM); 0.618 in experiment [1] (first compound 8 µM); 0.413 with Tosedostat + Tozasertib (first compound 0.02 µM); 0.4 in the experiment with Tosedostat + Tozasertib (first compound 0.06325 µM); 0.393 with Tosedostat + Tozasertib (first compound 0.2 µM). For the same cell line, the relative viability with Tosedostat + Tozasertib (first compound 0.6325 µM) was 0.388; with Tosedostat + Tozasertib (first compound 2 µM), 0.306; with Tosedostat + OSI-027 (first compound 0.02 µM) it was 1.15; with Tosedostat + OSI-027 (first compound 0.06325 µM), 0.985; in the experiment with Tosedostat + OSI-027 (first compound 0.2 µM), 1.01; in the experiment with Tosedostat + OSI-027 (first compound 0.6325 µM) it was 0.963. Also, the relative viability in the experiment with Tosedostat + OSI-027 (first compound 2 µM) amounted to 0.588.
On to NCI-H1651, for which the relative viability in the experiment with Tosedostat + AZD7762 (first compound 0.02 µM) is 0.458; in the experiment with Tosedostat + AZD7762 (first compound 0.06325 µM), 0.486; with Tosedostat + AZD7762 (first compound 0.2 µM), 0.588; with Tosedostat + AZD7762 (first compound 0.6325 µM) it was 0.439; in the experiment with Tosedostat + AZD7762 (first compound 2 µM), 0.384; in experiment [1] (first compound 0.253 µM), 0.821. Moreover, the relative viability in experiment [1] (first compound 0.8 µM) was 0.78; in experiment [1] (first compound 2.53 µM), 0.777; in experiment [1] (first compound 8 µM) it was 0.75; with Tosedostat + Tozasertib (first compound 0.02 µM), 0.726; with Tosedostat + Tozasertib (first compound 0.06325 µM) it was 0.645; with Tosedostat + Tozasertib (first compound 0.2 µM), 0.637. For the same cell line, the relative viability with Tosedostat + Tozasertib (first compound 0.6325 µM) was found to be 0.678; in the experiment with Tosedostat + Tozasertib (first compound 2 µM) it was 0.554; with Tosedostat + OSI-027 (first compound 0.02 µM), 0.747; in the experiment with Tosedostat + OSI-027 (first compound 0.06325 µM), 0.801; with Tosedostat + OSI-027 (first compound 0.2 µM), 0.62; with Tosedostat + OSI-027 (first compound 0.6325 µM) it was 0.708. In the experiment with Tosedostat + OSI-027 (first compound 2 µM), the relative viability worked out at 0.598.
